# Test results as given in patent US9771361B2, “Inhibitors of influenza viruses replication” (priority 2013, dated 2017).
# Values joined by “and” are separate entries in the source; they are usually repeats but may differ in a detail not shown here. Equal values may be shown once. Where a name gives a salt, the structure may show the parent alone. Read-outs that look alike come from different tables or passages of the source. Marks after values point to notes of the source that are not given here.
# Key:
# influenza A [1] = type: in vivo, mice
# influenza virus = tested on: influenza virus; set-up: species or system mice; conditions: mouse, in vivo
# [2] = tested on: influenza A/Wisconsin/67/2005 (H3N2) challenge strain virus; set-up: species or system humans; conditions: human, in vivo
# [3] = tested on: Influenza A/Victoria/3/75 (H3N2) virus; type: in vivo, BALB/c mice
# [4] = tested on: influenza virus B/Mass/3/66; type: in vivo, Balb/c mice
# influenza A virus = type: in vivo, mice
# [5] = tested on: Influenza A/California/04/2009 (pndH1N1) virus; type: in vivo, BALB/c mice
# [6] = in vivo
# [7] = human, in vivo
# [8] = tested on: Influenza A/Vietnam/1203/2004 (H5N1) virus; set-up: species or system BALB/c mice; conditions: mouse, in vivo
# influenza A [9] = tested on: influenza A; set-up: species or system mice; conditions: mouse, in vivo
# [10] = tested on: influenza A/Wisconsin/67/2005 (H3N2) challenge strain virus; set-up: species or system humans; conditions: human, in vivo; remark: listed apart in the source
# influenza B virus = type: cell-based
# [11] = tested on: influenza A/Wisconsin/67/2005 (H3N2) challenge strain virus; set-up: species or system humans; conditions: human, in vivo; remark: listed apart in the source
# influenza A strains = type: cell-based, influenza A virus
# [12] = Water activity tests: competition slurry of Form A seeded with Form F in IPA/water; type: physicochemical; conditions: Starting Forms A + F, Water Activity (aw) 0.9, Water wt % 2.80
# [13] = tested on: influenza virus A/PR/8/34; type: in vivo, Balb/c mice
# [14] = Conversion of free base Form A to hydrated form B with humidity/water activity; type: physicochemical; conditions: ambient temperature
# [15] = 10 mg/kg per treatment, twice a day for 10 days starting 2 hours prior to virus exposure
# [16] = Compound (1) 0 mg/kg, Oseltamivir 10 mg/kg, […]
# [17] = treatment start +48 h, 10 mg/kg BID
# [18] = treatment start +72 h, 10 mg/kg BID
smiles,measurement,setting,value
O=C(O)[C@H]1C2CCC(CC2)C1Nc1nc(-c2c[nH]c3ncc(F)cc23)ncc1F (stereo partly shown) [Compound (1)],survival and BW loss,"influenza A [1]; mouse, in vivo",complete survival and a dose-dependent reduction in BW loss
same,Percent Body Weight Loss on Study Day 8,"influenza A [1]; mouse, in vivo, 0.1 mg/kg",−31.9%
same,Percent Survival,"influenza A [1]; mouse, in vivo, 0.1 mg/kg",0%
same,Percent Body Weight Loss on Study Day 8,"influenza A [1]; mouse, in vivo, 0.3 mg/kg",−30.4%
same,Percent Survival,"influenza A [1]; mouse, in vivo, 0.3 mg/kg",25%
same,Percent Body Weight Loss on Study Day 8,"influenza A [1]; mouse, in vivo, 1 mg/kg",−16.8%
same,Percent Survival,"influenza A [1]; mouse, in vivo, 1 mg/kg",100%
same,Percent Body Weight Loss on Study Day 8,"influenza A [1]; mouse, in vivo, 3 mg/kg",−8.7%
same,Percent Survival,"influenza A [1]; mouse, in vivo, 3 mg/kg",100%
same,Percent Body Weight Loss on Study Day 8,"influenza A [1]; mouse, in vivo, 10 mg/kg",−2.8%
same,Percent Survival,"influenza A [1]; mouse, in vivo, 10 mg/kg",100%
same,correlation between lung titer reduction and Cmin,influenza virus,clear correlation
same,AUC viral shedding versus pooled placebo,[2],statistically significant reduction
same,dose response trend in median AUC viral shedding in nasal swabs,[2],statistically significant dose response trend
same,improvement over placebo in viral shedding,[2],a similar magnitude of improvement over placebo was not observed
same,peak viral shedding versus pooled placebo,[2],significant reductions
same,Survivors/Total,"[3]; mouse, in vivo",10/10***
same,Penh (Day 6/7),"[4]; mouse, in vivo",1.90 and 2.06 and 2.04
same,Survival (21 days),"[4]; mouse, in vivo",0%
same,Weight Loss (Day 8),"[4]; mouse, in vivo",33.6% and 33.9% and 33%
same,activity against influenza B in vivo,"[4]; mouse, in vivo",little activity
same,interference with the effectiveness of Oseltamivir,"[4]; mouse, in vivo",does not interfere with the effectiveness of Oseltamivir
same,"protection against morbidity, BW loss or loss of lung function","[4]; mouse, in vivo","no significant protection against morbidity, BW loss or loss of lung function"
same,protection,"influenza A virus; mouse, in vivo",partial protection
same,protection from death and BW loss,"influenza A virus; mouse, in vivo",complete protection from death and reduced BW loss
same,survival,"influenza A virus; mouse, in vivo",complete survival
same,Percent Survival,"influenza A virus; mouse, in vivo, 1 mg/kg",100%
same,Survivors/Total,"[5]; mouse, in vivo",9/9*** and 10/10***
same,liver function abnormalities and serum phosphate decreases,[6],Neither liver function abnormalities nor serum phosphate decreases were observed
same,discontinuations and serious adverse events,[7],no discontinuations due to Compound (1)-related adverse events (AE) nor were there any serious adverse events
same,elevations in alanine aminotransferase (ALT),[7],observed
same,incidence of decreased blood phosphorus level,[7],18.1%
same,incidence of nasal congestion,[7],1.4%
same,incidence of rhinorrhea,[7],4.2%
same,tolerability,[7],well tolerated
same,protection,[8],complete protection
same,reduction in lung viral titers,influenza A [9],"robust, statistically significant reductions in lung viral titers"
same,median AUC of influenza-like symptoms versus placebo,[10],statistically significant reduction
same,median duration of composite clinical symptoms versus placebo,[10],statistically significant reduction
same,median duration of influenza-like symptoms versus placebo,[10],statistically significant reduction
same,activity against influenza B virus,influenza B virus,limited activity
same,rates of seroconversion versus placebo,[11],no difference
same,activity against all influenza A strains tested,influenza A strains,potent activity
O=C(O)[C@H]1C2CCC(CC2)C1Nc1nc(-c2c[nH]c3ncc(F)cc23)ncc1F (stereo partly shown) [Form A of HCl salt of Compound (1).½H2O],Final Form,[12],converted to Form F of HCl salt of Compound (1).3H2O
CCOC(=O)C1=C[C@@H](OC(CC)CC)[C@H](NC(C)=O)[C@@H](N)C1 [Oseltamivir],survival,"influenza A [1]; 10 mg/kg BID, same experiment",All of the oseltamivir-administered mice survived
same,Percent Body Weight Loss on Study Day 8,"influenza A [1]; mouse, in vivo, 10 mg/kg",−19.1%
same,Percent Survival,"influenza A [1]; mouse, in vivo, 10 mg/kg",100%
same,Survivors/Total,[3]; [15],9/10***
same,Penh (Day 6/7),[4]; [16],1.08
same,Survival (21 days),[4]; [16],100%
same,Weight Loss (Day 8),[4]; [16],12.8%
same,"protection from death, BW loss and lung function","[4]; mouse, in vivo","complete protection from death, reduced BW loss and restored lung function"
same,Percent Body Weight Loss on Study Day 8,"influenza A virus; mouse, in vivo, 10 mg/kg",−28.9%
same,Percent Survival,"influenza A virus; mouse, in vivo, 10 mg/kg",100%
same,Percent Body Weight Loss on Study Day 8,influenza A virus; [17],−31.1%
same,Percent Survival,influenza A virus; [17],80%
same,Percent Body Weight Loss on Study Day 8,influenza A virus; [18],−31.3%
same,Percent Survival,influenza A virus; [18],0%
same,Survivors/Total,[5]; [15],10/10***
same,Penh (Day 3),[13]; [16],2.36
same,Survival (21 days),[13]; [16],0%
same,Weight Loss (Day 8),[13]; [16],32.0%
same,"protection from death, BW loss and lung function","[13]; mouse, in vivo",did not protect from death reduce BW loss or restore lung function
O=C(O)[C@H]1C2CCC(CC2)[C@@H]1Nc1nc(-c2c[nH]c3ncc(F)cc23)ncc1F [Form A of Compound (1)],water activity where the hydrate form (form B) was observed,[14],greater than 0.6
